Measurements published in patent US11339128B2 (Firmenich Incorporated, priority 2014, dated 2022).

Molecular target: T1, T1R2/T1R3 taste receptor (Homo sapiens, UniProt Q7RTX0+Q8TE23)
T1 sequence (Q8TE23 20-839): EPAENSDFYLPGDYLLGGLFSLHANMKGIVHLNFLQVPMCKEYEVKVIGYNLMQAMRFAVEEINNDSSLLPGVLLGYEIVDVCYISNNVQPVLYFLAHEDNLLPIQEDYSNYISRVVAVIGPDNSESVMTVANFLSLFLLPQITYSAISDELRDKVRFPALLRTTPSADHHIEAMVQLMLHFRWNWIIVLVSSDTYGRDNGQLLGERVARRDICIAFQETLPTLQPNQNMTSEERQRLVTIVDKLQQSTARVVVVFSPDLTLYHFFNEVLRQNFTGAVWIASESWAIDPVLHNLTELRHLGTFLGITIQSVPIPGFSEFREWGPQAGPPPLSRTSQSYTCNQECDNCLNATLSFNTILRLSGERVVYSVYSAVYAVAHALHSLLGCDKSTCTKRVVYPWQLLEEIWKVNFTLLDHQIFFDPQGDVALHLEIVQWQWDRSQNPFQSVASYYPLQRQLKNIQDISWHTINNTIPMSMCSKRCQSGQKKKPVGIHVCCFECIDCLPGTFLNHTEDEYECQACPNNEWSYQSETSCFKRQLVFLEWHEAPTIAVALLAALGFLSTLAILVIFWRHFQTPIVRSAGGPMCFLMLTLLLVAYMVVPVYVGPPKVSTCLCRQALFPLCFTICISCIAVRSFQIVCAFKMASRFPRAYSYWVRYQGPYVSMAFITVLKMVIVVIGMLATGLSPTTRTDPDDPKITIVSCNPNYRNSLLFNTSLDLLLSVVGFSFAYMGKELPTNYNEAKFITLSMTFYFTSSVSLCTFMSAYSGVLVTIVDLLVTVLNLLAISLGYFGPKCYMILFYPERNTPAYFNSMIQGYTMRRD
T1 sequence (Q7RTX0 21-852): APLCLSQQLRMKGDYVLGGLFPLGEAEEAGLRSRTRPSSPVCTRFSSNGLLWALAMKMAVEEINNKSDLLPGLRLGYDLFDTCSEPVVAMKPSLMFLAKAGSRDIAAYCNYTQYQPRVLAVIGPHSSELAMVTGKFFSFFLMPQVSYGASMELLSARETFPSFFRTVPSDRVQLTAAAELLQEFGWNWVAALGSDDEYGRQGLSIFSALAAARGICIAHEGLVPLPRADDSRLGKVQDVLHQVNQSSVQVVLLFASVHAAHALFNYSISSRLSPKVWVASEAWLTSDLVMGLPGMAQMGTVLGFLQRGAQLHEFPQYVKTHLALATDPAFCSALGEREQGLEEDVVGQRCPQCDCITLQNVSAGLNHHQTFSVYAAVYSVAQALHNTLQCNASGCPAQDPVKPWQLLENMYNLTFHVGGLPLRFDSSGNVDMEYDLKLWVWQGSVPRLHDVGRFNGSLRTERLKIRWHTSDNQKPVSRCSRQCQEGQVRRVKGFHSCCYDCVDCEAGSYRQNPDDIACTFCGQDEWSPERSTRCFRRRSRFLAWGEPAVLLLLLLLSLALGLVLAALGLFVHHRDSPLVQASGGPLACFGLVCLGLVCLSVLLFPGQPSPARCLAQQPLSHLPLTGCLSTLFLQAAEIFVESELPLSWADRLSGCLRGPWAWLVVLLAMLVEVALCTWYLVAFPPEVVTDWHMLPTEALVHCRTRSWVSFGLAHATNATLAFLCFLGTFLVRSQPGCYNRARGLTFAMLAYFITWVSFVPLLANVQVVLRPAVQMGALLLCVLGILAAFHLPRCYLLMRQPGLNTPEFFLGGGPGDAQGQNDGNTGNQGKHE
Assay: Receptor-based assay: sweetener EC50 enhancement ratio with and without test compound
Type: cell-based
Settings: for Sucrose Enhancement EC50 Ratio: sweetener sucrose; for Fructose Enhancement EC50 Ratio: sweetener fructose; for Sucralose Enhancement EC50 Ratio: sweetener sucralose
Procedure: Potencies (EC50 values) for the sweeteners sucrose, sucralose, and fructose were measured against the T1R2/T1R3 taste receptor. EC50 was determined using the sweetener alone and in the presence of 1 μM, 3 μM, 10 μM, or 50 μM of test compound. EC50 ratios were calculated by the ratio of potency with and without the test compound. An “A” value indicates an enhancement ratio of greater than 1 and less than 10. A “B” value indicates an enhancement ratio from 10 to 20. A “C” value indicates an enhancement ratio greater than 20.

SMILES | Sucrose Enhancement EC50 Ratio (1 μM test compound) | Sucrose Enhancement EC50 Ratio (3 μM test compound) | Sucrose Enhancement EC50 Ratio (10 μM test compound) | Fructose Enhancement EC50 Ratio (10 μM test compound) | Sucralose Enhancement EC50 Ratio (10 μM test compound) | Fructose Enhancement EC50 Ratio (50 μM test compound) | Sucralose Enhancement EC50 Ratio (3 μM test compound)
Cc1nc2cccc(O[C@H]3CC[C@H](CO)CC3)c2c(N)c1C(=O)O [Compound 109] | B (an enhancement ratio from 10 to 20) | C (an enhancement ratio greater than 20) | C (an enhancement ratio greater than 20) | – | – | – | –
Cc1nc2cccc(O[C@H]3CC[C@H](NC(=O)CN)CC3)c2c(N)c1C(=O)O [Compound 401] | A (an enhancement ratio of greater than 1 and less than 10) | A (an enhancement ratio of greater than 1 and less than 10) | A (an enhancement ratio of greater than 1 and less than 10) | A (an enhancement ratio of greater than 1 and less than 10) | A (an enhancement ratio of greater than 1 and less than 10) | – | –
CN[C@@H](CO)C(=O)N[C@H]1CC[C@H](Oc2cccc3nc(C)c(C(=O)O)c(N)c23)CC1 [Compound 502] | A (an enhancement ratio of greater than 1 and less than 10) | A (an enhancement ratio of greater than 1 and less than 10) | A (an enhancement ratio of greater than 1 and less than 10) | A (an enhancement ratio of greater than 1 and less than 10) | A (an enhancement ratio of greater than 1 and less than 10) | A (an enhancement ratio of greater than 1 and less than 10) | –
CN[C@@H](C)C(=O)N[C@H]1CC[C@H](Oc2cccc3nc(C)c(C(=O)O)c(N)c23)CC1.Cl [Compound 500] | A (an enhancement ratio of greater than 1 and less than 10) | A (an enhancement ratio of greater than 1 and less than 10) | A (an enhancement ratio of greater than 1 and less than 10) | – | A (an enhancement ratio of greater than 1 and less than 10) | A (an enhancement ratio of greater than 1 and less than 10) | –
CCOCCOCC(=O)N[C@H]1CC[C@H](Oc2cccc3nc(C)c(C(=O)O)c(N)c23)CC1 [Compound 332] | A (an enhancement ratio of greater than 1 and less than 10) | B (an enhancement ratio from 10 to 20) | – | – | – | – | –
Cc1nc2cccc(O[C@H]3CC[C@H](NC(=O)C4CCC4)CC3)c2c(N)c1C(=O)O [Compound 320] | A (an enhancement ratio of greater than 1 and less than 10) | B (an enhancement ratio from 10 to 20) | B (an enhancement ratio from 10 to 20) | – | B (an enhancement ratio from 10 to 20) | – | –
Cc1nc2cccc(O[C@H]3CC[C@H](NC(=O)CCCC(C)C)CC3)c2c(N)c1C(=O)O [Compound 319] | A (an enhancement ratio of greater than 1 and less than 10) | A (an enhancement ratio of greater than 1 and less than 10) | A (an enhancement ratio of greater than 1 and less than 10) | – | – | – | –
CCCc1ccnc(N[C@H]2CC[C@H](Oc3cccc4nc(C)c(C(=O)O)c(N)c34)CC2)n1 [Compound 709] | A (an enhancement ratio of greater than 1 and less than 10) | A (an enhancement ratio of greater than 1 and less than 10) | A (an enhancement ratio of greater than 1 and less than 10) | – | A (an enhancement ratio of greater than 1 and less than 10) | – | A (an enhancement ratio of greater than 1 and less than 10)
COc1cc(OC)nc(N[C@H]2CC[C@H](Oc3cccc4nc(C)c(C(=O)O)c(N)c34)CC2)n1 [Compound 710] | A (an enhancement ratio of greater than 1 and less than 10) | A (an enhancement ratio of greater than 1 and less than 10) | B (an enhancement ratio from 10 to 20) | A (an enhancement ratio of greater than 1 and less than 10) | B (an enhancement ratio from 10 to 20) | A (an enhancement ratio of greater than 1 and less than 10) | A (an enhancement ratio of greater than 1 and less than 10)
Cc1ccnc(N[C@H]2CC[C@H](Oc3cccc4nc(C)c(C(=O)O)c(N)c34)CC2)n1 [Compound 708] | A (an enhancement ratio of greater than 1 and less than 10) | C (an enhancement ratio greater than 20) | C (an enhancement ratio greater than 20) | A (an enhancement ratio of greater than 1 and less than 10) | C (an enhancement ratio greater than 20) | – | C (an enhancement ratio greater than 20)
Cc1nc2cccc(O[C@H]3CC[C@@H](C)CC3)c2c(N)c1C(=O)O [Compound 102] | A (an enhancement ratio of greater than 1 and less than 10) | A (an enhancement ratio of greater than 1 and less than 10) | B (an enhancement ratio from 10 to 20) | – | – | – | –
Cc1nc2cccc(O[C@H]3CC[C@H](N)CC3)c2c(N)c1C(=O)O.Cl [Compound 302, 4-Amino-5-((trans-4-aminocyclohexyl)oxy)-2-methylquinoline-3-carboxylic acid (HCl salt)] | A (an enhancement ratio of greater than 1 and less than 10) | A (an enhancement ratio of greater than 1 and less than 10) | – | – | – | – | –
Cc1nc2cccc(O[C@H]3CC[C@H](NC(=O)CO[C@H]4CC[C@H](C)CC4)CC3)c2c(N)c1C(=O)O [Compound 312] | A (an enhancement ratio of greater than 1 and less than 10) | A (an enhancement ratio of greater than 1 and less than 10) | B (an enhancement ratio from 10 to 20) | – | – | – | –
CCNCC(=O)N[C@H]1CC[C@H](Oc2cccc3nc(C)c(C(=O)O)c(N)c23)CC1.Cl [Compound 400, 4-Amino-5-((trans-4-(2-(ethylamino)acetamido)cyclohexyl)oxy)-2-methyl quinolone-3-carboxylic acid (HCl)] | A (an enhancement ratio of greater than 1 and less than 10) | A (an enhancement ratio of greater than 1 and less than 10) | A (an enhancement ratio of greater than 1 and less than 10) | A (an enhancement ratio of greater than 1 and less than 10) | A (an enhancement ratio of greater than 1 and less than 10) | A (an enhancement ratio of greater than 1 and less than 10) | –
CO[C@H]1CC[C@@H](Oc2cccc3nc(C)c(C(=O)O)c(N)c23)CC1 [Compound 106] | A (an enhancement ratio of greater than 1 and less than 10) | A (an enhancement ratio of greater than 1 and less than 10) | A (an enhancement ratio of greater than 1 and less than 10) | – | – | – | –
Cc1nc2cccc(O[C@H]3CC[C@H](NC(=O)[C@@H]4CCCN4)CC3)c2c(N)c1C(=O)O [Compound 504] | A (an enhancement ratio of greater than 1 and less than 10) | A (an enhancement ratio of greater than 1 and less than 10) | – | – | – | – | –
